Reference: paper PMC3510433, “Adamantyl carboxamides and acetamides as potent human 11β-hydroxysteroid dehydrogenase type 1 inhibitors” (Bioorganic & Medicinal Chemistry, 2012)
Marks after values point to notes of the source that are not given here.

Key:
[1] = molecular target: T1, human 11β-HSD1 (Homo sapiens, UniProt P28845); test: 11β-HSD1 inhibition, human HEK-293 cell based assay (SPA); conditions: for inhibition at 1 µM: HEK293, read-out: Percentage of inhibition measured at 1 μM; for 11β-HSD1 inhibitory activity (in words): at 1 μM where stated
T1 construct: expressed in transfected cells; host or cells: HEK-293 (human), stably transfected
Description: 11β-HSD1 inhibition was measured in intact human HEK-293 cells to reveal the true inhibitory activity. Differences in observed effects for different compounds may reflect combinatorial factors including the ability to penetrate the cell membrane, the stability within the cell and the binding ability to the enzyme.
The cell-based assays were conducted on the human HEK-293 cell line stably transfected with the HSD11B1 gene.[28] 11β-HSD1 activity was determined by measuring the amount of tritiated product formed using a scintillation proximity assay (SPA).
Cells were incubated in 96-well micro-plates in the presence of tritiated cortisone substrate and the assay plates contained internal high and low controls to allow calculation of percentage inhibition. Each well of a 96-well culture plate was seeded with human 11β-HSD1 overexpressed HEK293 cells in 100 μL medium. When the cells were 80% confluent, the medium was removed from each well then 100 μL of fresh, serum-free, medium containing ^3H-cortisone (22 nM) and test compound in 1% DMSO was added. The control wells were also dispensed. […] The plate was incubated at 37 °C for 2 h, after which 50 μL of medium was removed from each well and transferred to a microplate containing 100 μL of a pre-incubated mixture of anti-cortisol antibody and SPA bead. The mixture was incubated with gentle shaking until equilibrium was reached, before transferring to a scintillation counter to establish the enzyme activity in each sample.
The compounds were initially tested at a concentration of 1 μM. Those compounds showing over 70% inhibition of 11β-HSD1 at 1 μM were subjected to an IC50 measurement. A Merck compound 544 was used as the reference compound in the assay (IC50 = 50 ± 20 nM).[19] The IC50 values are reported as the mean value of 3 measurements with variance less than 20%. IC50 values were calculated from the dose-response curve using Microsoft Excel add-in XLfit with a Four Parameter Logistic nonlinear regression model.

[2] = HEK-293 cells stably transfected with HSD11B1, mean of 3 measurements
[3] = 1 μM, HEK-293 cells transfected with HSD11B1

T1 sequence (P28845 whole entry): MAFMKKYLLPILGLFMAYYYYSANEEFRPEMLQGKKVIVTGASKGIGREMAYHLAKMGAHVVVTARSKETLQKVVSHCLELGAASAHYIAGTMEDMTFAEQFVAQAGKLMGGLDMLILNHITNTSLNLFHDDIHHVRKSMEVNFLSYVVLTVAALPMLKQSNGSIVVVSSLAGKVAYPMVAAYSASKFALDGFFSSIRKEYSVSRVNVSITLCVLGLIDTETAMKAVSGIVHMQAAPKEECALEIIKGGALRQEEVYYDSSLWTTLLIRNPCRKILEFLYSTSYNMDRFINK

SMILES | IC50 [1, 2] [nM] | inhibition at 1 µM [1, 3] [%] | melting point [°C] | other results
Cc1cccc(CN(C)C(=O)C23CC4CC(CC(C4)C2)C3)n1 [Compound 27, N-Methyl-N-((6-methylpyridin-2-yl)-methyl)adamantane-1-carboxamide] |  | 48 | 76 to 77.5 | 
CC(=O)Nc1cccc(CN(C)C(=O)C23CC4CC(CC(C4)C2)C3)c1 [Compound 21, N-(3-Acetamidobenzyl)-N-methyl-adamantane-1-carboxamide] |  | 22 | 109 to 111 | 
O=C(CC12CC3CC(CC(C3)C1)C2)NCc1ccccn1 [Compound 38, 2-(Adamantan-1-yl)-N-(pyridin-2-yl-methyl)acetamide] |  |  |  | Percentage of inhibition measured at 1 μM [1, 3]: 26% ^a
CN(Cc1sccc1N)C(=O)C12CC3CC(CC(C3)C1)C2 [Compound 7, N-((3-Aminothiophen-2-yl)methyl)-N-methyladamantane-1-carboxamide] |  | 12 | 117 to 119 | 11β-HSD1 inhibitory activity (in words) [1]: sharp decrease of activity
CN(Cc1ccsc1)C(=O)CC12CC3CC(CC(C3)C1)C2 [Compound 34, 2-(Adamantan-1-yl)-N-methyl-N-(thio-phen-3-ylmethyl)acetamide] | 349 |  | 117 to 119 | fold reduction in potency compared to 12 ([1]; acetamide vs carboxamide 12): greater than 2 fold
CN(Cc1cccnc1)C(=O)C12CC3CC(CC(C3)C1)C2 [Compound 24, N-Methyl-N-(pyridin-3-ylmethyl)-adamantane-1-carboxamide] |  | 57 | 57 to 59.5 | 
CN(Cc1ccnn1C)C(=O)C12CC3CC(CC(C3)C1)C2 [Compound 18, N-Methyl-N-((1-methyl-1H-pyrazol-5-yl)-methyl)adamantane-1-carboxamide] |  | 34 | 102 to 103.5 | 
CN(Cc1cccs1)C(=O)C1(c2ccc(Cl)cc2)CCC1 [Compound 43, 1-(4-Chlorophenyl)-N-methyl-N-(thio-phen-2-ylmethyl)cyclobutanecarbox-amide] | 385 |  |  | 
CN(Cc1cccs1)C(=O)C12CC3CC(CC1C3)C2 [Compound 39, N-Methyl-N-(thiophen-2-ylmethyl)-tRicyclo[3.3.1.0^(3,7)]nonane-3-carboxamide] | 1080 |  | 87 to 88.5 | 
CN(Cc1ccc(Cl)s1)C(=O)C12CC3CC(CC(C3)C1)C2 [Compound 11, N-((5-Chlorothiophen-2-yl)methyl)-N-methyladamantane-1-carboxamide] |  | 29 | 92 to 94 | 11β-HSD1 inhibitory activity (in words) [1]: weak inhibition
CN(Cc1nccn1C)C(=O)C12CC3CC(CC(C3)C1)C2 [Compound 17, N-Methyl-N-((1-methyl-1H-imidazol-2-yl)methyl)adamantane-1-carboxamide] |  | 24 | 175 to 176 | 
Cc1csc(CN(C)C(=O)C23CC4CC(CC(C4)C2)C3)c1 [Compound 8, N-Methyl-N-((4-methylthiophen-2-yl)-methyl)adamantane-1-carboxamide] |  | 55 | 87 to 88 | 11β-HSD1 inhibitory activity (in words) [1]: weak inhibition
Cc1ccsc1CN(C)C(=O)C12CC3CC(CC(C3)C1)C2 [Compound 6, N-Methyl-N-((3-methylthiophen-2-yl)methyl)adamantane-1-carboxamide] | 275 |  | 72 to 73.5 | 11β-HSD1 inhibitory activity (in words) [1]: retains nearly the same activity as parent compound 3
CN(CCc1ccccn1)C(=O)C12CC3CC(CC(C3)C1)C2 [Compound 30, N-Methyl-N-(2-(pyridin-2-yl)ethyl)-adamantane-1-carboxamide] | 165 |  | 64 to 65 | 
CN(Cc1cccs1)C(=O)C1(c2ccc(Cl)cc2)CC1 [Compound 42, 1-(4-Chlorophenyl)-N-methyl-N-(thio-phen-2-ylmethyl) cyclopropanecarbox-amide] | 1550 |  |  | IC50 ([1]; HEK-293 cells): ~1600 nM; fold loss of activity in comparison with 41 ([1]; vs compound 41): ~5.5 fold
Cc1csc(CN(C)C(=O)C23CC4CC(CC(C4)C2)C3)n1 [Compound 19, N-Methyl-N-((4-methylthiazol-2-yl)-methyl)adamantane-1-carboxamide] |  | 31 |  | 
C1CCc2nnc(C34CC5CC(CC(C5)C3)C4)n2CC1 [Merck compound 544, reference compound] | 50 ± 20 |  |  | 
CN(Cc1cccc(N)c1)C(=O)C12CC3CC(CC(C3)C1)C2 [Compound 20, N-(3-Aminobenzyl)-N-methyladam-antane-1-carboxamide] | 118 |  | 105 to 106.5 | 
CN(Cc1cccn1C)C(=O)CC12CC3CC(CC(C3)C1)C2 [Compound 35, 2-(Adamantan-1-yl)-N-methyl-N-[(1-methyl-1H-pyrrol-2-yl)methyl]acetamide] | 655 |  | 75 to 76.5 | fold loss of inhibitory activity compared with 15 ([1]; acetamide vs carboxamide 15): ~6 fold
CN(Cc1cccnc1)C(=O)CC12CC3CC(CC(C3)C1)C2 [Compound 37, 2-(Adamantan-1-yl)-N-methyl-N-(pyridin-3-ylmethyl)acetamide] |  | 67 | 67 to 68.5 | 
Cc1ccc(CN(C)C(=O)C23CC4CC(CC(C4)C2)C3)s1 [Compound 10, N-Methyl-N-((5-methylthiophen-2-yl)-methyl)adamantane-1-carboxamide] |  | 32 | 83 to 85.5 | 11β-HSD1 inhibitory activity (in words) [1]: weak inhibition
Cn1cccc1CNC(=O)CC12CC3CC(CC(C3)C1)C2 [Compound 36, 2-(Adamantan-1-yl)-N-[(1-methyl-1H-pyrrol-2-yl)methyl]acetamide] | 2880 |  | 92 to 95 | 
CN(Cc1ccco1)C(=O)C12CC3CC(CC(C3)C1)C2 [Compound 13] | 249 |  |  | 
CN(Cc1cccs1)C(=O)C1(C)CCCCC1 [Compound 40, N,1-Dimethyl-N-(thiophen-2-ylmethyl)cyclohexanecarboxamide] | 3600 |  |  | 
CN(Cc1cccs1)C(=O)C1(c2ccc(Cl)cc2)CCCC1 [Compound 44, 1-(4-Chlorophenyl)-N-methyl-N-(thio-phen-2-ylmethyl)cyclopentanecarbox-amide] | 2200 |  | 58 to 60 | 

The next lines start with results.

IC50 [1, 2] [nM] | inhibition at 1 µM [1, 3] [%] | melting point [°C] | SMILES | other results
676 |  |  | O=C(NCc1cccnc1)C12CC3CC(CC(C3)C1)C2 [Compound 25, N-(Pyridin-3-ylmethyl)adamantane-1-carboxamide] | 
448 |  |  | CN(CCc1cccs1)C(=O)C12CC3CC(CC(C3)C1)C2 [Compound 28] | 
 | 66 | 117 to 119 | O=C(CC12CC3CC(CC(C3)C1)C2)NCc1cccs1 [Compound 33, 2-(Adamantan-1-yl)-N-(thiophen-2-ylmeth-yl)acetamide] | 
 | 45 | 91 to 93.5 | O=C(NCc1ccccn1)C12CC3CC(CC(C3)C1)C2 [Compound 26, N-(Pyridin-2-ylmethyl)adamantane-1-carboxamide] | 
 | 8 | 127 to 128.5 | Cc1csc(CNC(=O)C23CC4CC(CC(C4)C2)C3)c1 [Compound 9, N-((4-Methylthiophen-2-yl)methyl)-adamantane-1-carboxamide] | 
1700 |  | 117 to 119 | Cn1cccc1CNC(=O)C12CC3CC(CC(C3)C1)C2 [Compound 16, N-((1-Methyl-1H-pyrrol-2-yl)meth-yl)-adamantane-1-carboxamide] | 
679 |  |  | O=C(NCCc1cccs1)C12CC3CC(CC(C3)C1)C2 [Compound 29] | 
 | 68 | 69 to 72 | O=C(NCc1ccco1)C12CC3CC(CC(C3)C1)C2 [Compound 14, N-(Furan-2-ylmethyl)adamantane-1-carboxamide] | 
403 |  |  | O=C(NCc1cccs1)C12CC3CC(CC(C3)C1)C2 [Compound 5] | 
125 |  |  | CN(Cc1ccsc1)C(=O)C12CC3CC(CC(C3)C1)C2 [Compound 12] | 
 | 1 | 83 to 85 | O=C(NCCc1cccnc1)C12CC3CC(CC(C3)C1)C2 [Compound 32, N-(2-(Pyridin-3-yl)ethyl)adamant-ane-1-carboxamide] | 
379 |  | 76 to 79 | O=C(NCCc1ccccn1)C12CC3CC(CC(C3)C1)C2 [Compound 31, N-(2-(Pyridin-2-yl)ethyl)adamant-ane-1-carboxamide] | 
